# Measured values reported in ChEMBL document CHEMBL1250518, “Nonsteroidal dissociated glucocorticoid agonists containing azaindoles as steroid A-ring mimetics” (J Med Chem, 2010).
# What was measured:
# Glucocorticoid receptor [1] = molecular target: T1, Glucocorticoid receptor (Homo sapiens, UniProt P04150); assay: Binding affinity to glucocorticoid receptor expressed in baculovirus-infected insect cells using tetramethylrhodamine labeled Dexamethasone by fluorescence polarization microplate assay
# T1 sequence (P04150 whole entry): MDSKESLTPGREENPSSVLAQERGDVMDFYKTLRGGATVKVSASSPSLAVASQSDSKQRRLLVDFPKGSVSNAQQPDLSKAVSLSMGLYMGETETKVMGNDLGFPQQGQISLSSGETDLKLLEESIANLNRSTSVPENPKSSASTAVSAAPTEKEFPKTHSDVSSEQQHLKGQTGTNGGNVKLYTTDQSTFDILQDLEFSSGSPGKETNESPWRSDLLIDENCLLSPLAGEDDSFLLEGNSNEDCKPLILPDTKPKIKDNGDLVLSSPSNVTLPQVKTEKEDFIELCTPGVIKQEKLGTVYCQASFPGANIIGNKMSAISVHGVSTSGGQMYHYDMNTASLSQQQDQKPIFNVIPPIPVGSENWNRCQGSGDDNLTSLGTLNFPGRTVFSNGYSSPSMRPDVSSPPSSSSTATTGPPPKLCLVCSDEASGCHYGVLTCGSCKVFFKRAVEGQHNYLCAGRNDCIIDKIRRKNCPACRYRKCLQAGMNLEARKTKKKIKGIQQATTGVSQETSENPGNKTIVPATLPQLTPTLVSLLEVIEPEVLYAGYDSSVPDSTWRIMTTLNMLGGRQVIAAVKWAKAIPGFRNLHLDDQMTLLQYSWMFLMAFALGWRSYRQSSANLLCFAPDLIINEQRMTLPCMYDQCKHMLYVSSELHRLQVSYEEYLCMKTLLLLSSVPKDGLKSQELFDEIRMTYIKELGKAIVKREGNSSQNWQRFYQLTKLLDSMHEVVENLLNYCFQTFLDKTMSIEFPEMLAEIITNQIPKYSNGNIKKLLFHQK
# Progesterone receptor = molecular target: T2, Progesterone receptor (Homo sapiens, UniProt P06401); assay: Binding affinity to progesterone receptor expressed in baculovirus-infected insect cells using tetramethylrhodamine labeled RU-486 by fluorescence polarization microplate assay
# T2 sequence (P06401 whole entry): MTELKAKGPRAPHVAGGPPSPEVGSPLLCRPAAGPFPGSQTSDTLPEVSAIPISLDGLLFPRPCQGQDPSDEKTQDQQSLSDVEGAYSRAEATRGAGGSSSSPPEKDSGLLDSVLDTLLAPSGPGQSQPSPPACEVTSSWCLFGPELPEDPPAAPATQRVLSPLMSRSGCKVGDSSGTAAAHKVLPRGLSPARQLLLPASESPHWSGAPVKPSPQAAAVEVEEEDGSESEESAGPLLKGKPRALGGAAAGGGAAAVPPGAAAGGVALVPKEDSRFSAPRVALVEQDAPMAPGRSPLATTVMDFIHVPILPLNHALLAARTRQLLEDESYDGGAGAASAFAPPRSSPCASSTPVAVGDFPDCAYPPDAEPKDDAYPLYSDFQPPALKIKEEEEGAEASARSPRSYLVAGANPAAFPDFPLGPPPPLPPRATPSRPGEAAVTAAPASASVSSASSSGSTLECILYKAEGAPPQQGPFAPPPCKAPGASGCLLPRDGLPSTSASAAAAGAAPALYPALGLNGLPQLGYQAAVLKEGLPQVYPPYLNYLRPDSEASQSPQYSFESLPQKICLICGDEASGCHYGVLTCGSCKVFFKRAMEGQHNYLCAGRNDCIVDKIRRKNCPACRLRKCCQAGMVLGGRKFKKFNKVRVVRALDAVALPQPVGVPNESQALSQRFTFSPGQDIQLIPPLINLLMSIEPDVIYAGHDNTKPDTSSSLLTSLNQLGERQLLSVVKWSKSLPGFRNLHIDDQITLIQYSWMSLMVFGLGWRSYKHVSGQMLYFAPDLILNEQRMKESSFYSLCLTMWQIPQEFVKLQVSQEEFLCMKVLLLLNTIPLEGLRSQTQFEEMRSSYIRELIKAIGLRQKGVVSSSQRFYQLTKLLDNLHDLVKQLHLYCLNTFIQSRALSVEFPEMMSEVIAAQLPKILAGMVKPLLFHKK
# [2] = molecular target: T3, Mineralocorticoid receptor (Homo sapiens, UniProt P08235); assay: Binding affinity to mineralocorticoid receptor expressed in baculovirus-infected insect cells using tetramethylrhodamine labeled Dexamethasone by fluorescence polarization microplate assay
# T3 sequence (P08235 whole entry): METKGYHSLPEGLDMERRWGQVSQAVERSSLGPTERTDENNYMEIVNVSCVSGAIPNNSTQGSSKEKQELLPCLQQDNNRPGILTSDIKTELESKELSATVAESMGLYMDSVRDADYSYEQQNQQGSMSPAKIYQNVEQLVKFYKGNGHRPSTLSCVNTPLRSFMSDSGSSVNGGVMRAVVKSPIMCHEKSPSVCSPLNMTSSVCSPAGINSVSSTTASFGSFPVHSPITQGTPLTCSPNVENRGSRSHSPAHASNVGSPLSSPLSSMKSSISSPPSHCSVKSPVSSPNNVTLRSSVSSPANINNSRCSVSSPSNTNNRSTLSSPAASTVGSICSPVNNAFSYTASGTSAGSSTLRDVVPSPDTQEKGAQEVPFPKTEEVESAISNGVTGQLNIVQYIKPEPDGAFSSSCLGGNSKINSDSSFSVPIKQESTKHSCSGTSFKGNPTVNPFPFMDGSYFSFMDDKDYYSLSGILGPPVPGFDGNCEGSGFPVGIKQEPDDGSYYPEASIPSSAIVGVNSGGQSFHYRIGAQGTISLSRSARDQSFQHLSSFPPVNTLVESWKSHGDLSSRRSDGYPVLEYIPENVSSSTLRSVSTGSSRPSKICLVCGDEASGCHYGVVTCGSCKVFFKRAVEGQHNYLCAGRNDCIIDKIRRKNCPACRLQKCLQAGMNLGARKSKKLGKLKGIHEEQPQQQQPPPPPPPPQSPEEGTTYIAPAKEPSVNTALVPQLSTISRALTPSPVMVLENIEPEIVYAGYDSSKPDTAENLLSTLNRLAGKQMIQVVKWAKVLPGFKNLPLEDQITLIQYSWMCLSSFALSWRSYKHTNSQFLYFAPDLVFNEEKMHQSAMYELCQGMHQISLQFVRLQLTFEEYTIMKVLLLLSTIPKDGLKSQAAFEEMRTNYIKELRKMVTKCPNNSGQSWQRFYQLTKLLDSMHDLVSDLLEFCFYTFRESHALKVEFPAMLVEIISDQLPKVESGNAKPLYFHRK
# Glucocorticoid receptor [3] = molecular target: T1, Glucocorticoid receptor; assay: Transrepression activity at glucocorticoid receptor in HFF assessed as inhibition of IL-1-induced IL-6 production after 18 to 24 hrs by ELISA; format: cell-based
# Glucocorticoid receptor [4] = molecular target: T1, Glucocorticoid receptor; assay: Transactivation activity at glucocorticoid receptor in human HeLa cells transfected with luciferase gene linked to MMTV promoter by luciferase assay; format: cell-based
# Glucocorticoid receptor [5] = molecular target: T1, Glucocorticoid receptor; assay: Transactivation activity at glucocorticoid receptor in HFF assessed as induction of aromatase activity after 18 to 24 hrs by ELISA; format: cell-based
SMILES,IC50 (Glucocorticoid receptor [1]),IC50 (Progesterone receptor),IC50 [2],IC50 (Glucocorticoid receptor [3]),IC50 (Glucocorticoid receptor [4]),EC50 (Glucocorticoid receptor [5])
COc1ccc(F)cc1C(C)(C)CC(O)(Cc1cc2ccccn2n1)C(F)(F)F (stereo not drawn),690 nM,> 2000 nM,> 2000 nM,> 2000 nM,,
CC(C)(CC(O)(Cc1cc2ccncc2[nH]1)C(F)(F)F)c1cc(F)cc2c1OCC2 (stereo not drawn),2.3 nM,450 nM,280 nM,9.3 nM,> 2000 nM,
COc1ccc(F)cc1C(C)(C)C[C@](O)(Cc1cc2ccncc2[nH]1)C(F)(F)F,1700 nM,> 2000 nM,> 2000 nM,430 nM,,
COc1ccc(F)cc1C(C)(C)CC(O)(Cc1cc2ccncc2[nH]1)C(F)(F)F (stereo not drawn),4.4 nM,> 2000 nM,580 nM,9.8 nM,,
COc1ccc(F)cc1C(C)(C)CC(O)(Cc1cc2cnccc2[nH]1)C(F)(F)F (stereo not drawn),7.3 nM,> 2000 nM,320 nM,8.2 nM,,
CC(C)(CC(O)(Cc1cc2ccncc2[nH]1)C(F)(F)F)c1cc(-c2cncnc2)ccc1O (stereo not drawn),19 nM,> 2000 nM,1700 nM,21 nM,,
COc1ccc(F)cc1C(C)(C)CC(O)(Cn1ccc2ccncc21)C(F)(F)F (stereo not drawn),1400 nM,> 2000 nM,> 2000 nM,,,
COc1ccc(-c2cncnc2)cc1C(C)(C)CC(O)(Cc1cc2ccncc2[nH]1)C(F)(F)F (stereo not drawn),27 nM,> 2000 nM,> 2000 nM,50 nM,,
CC(C)(CC(O)(Cc1cc2ccncc2[nH]1)C(F)(F)F)c1cc(-c2cccnc2)ccc1O (stereo not drawn),6.6 nM,> 2000 nM,230 nM,23 nM,> 2000 nM,
CC(C)(CC(O)(Cc1cc2ccncc2[nH]1)C(F)(F)F)c1cc(Cl)cc2c1OCC2 (stereo not drawn),7 nM,1210 nM,540 nM,17 nM,> 2000 nM,120 nM
COc1ccc(F)cc1C(C)(C)CC(O)(Cn1ccc2ncccc21)C(F)(F)F (stereo not drawn),2 nM,200 nM,48 nM,2.8 nM,,
COc1ccc(F)cc1C(C)(C)CC(O)(Cc1cc2ccncc2s1)C(F)(F)F (stereo not drawn),7.1 nM,1300 nM,220 nM,35 nM,,
CC(C)(C[C@@](O)(Cc1cc2cnccc2[nH]1)C(F)(F)F)c1cc(F)ccc1O,4.7 nM,1900 nM,220 nM,3 nM,56 nM,45 nM
COc1ccc(F)cc1C(C)(C)CC(O)(Cc1cc2ncccc2[nH]1)C(F)(F)F (stereo not drawn),23 nM,> 2000 nM,> 2000 nM,120 nM,,
CC(C)(CC(O)(Cc1cc2ccncc2[nH]1)C(F)(F)F)c1cc(-c2ccccc2)ccc1O (stereo not drawn),11 nM,1300 nM,160 nM,15 nM,47 nM,45 nM
CC(C)(CC(O)(Cc1cc2ccncc2[nH]1)C(F)(F)F)c1cccc(F)c1 (stereo not drawn),23 nM,8 nM,> 2000 nM,99 nM,,> 2000 nM
C[C@@H]1C[C@H]2[C@@H]3CCC4=CC(=O)C=C[C@]4(C)[C@@]3(F)[C@@H](O)C[C@]2(C)[C@@]1(O)C(=O)CO [DEXAMETHASONE],,> 2000 nM,,,,
COc1ccc(-c2cccnc2)cc1C(C)(C)CC(O)(Cc1cc2ccncc2[nH]1)C(F)(F)F (stereo not drawn),8 nM,> 2000 nM,390 nM,30 nM,,> 2000 nM
COc1ccc(F)cc1C(C)(C)CC(O)(Cc1cc2ccccc2[nH]1)C(F)(F)F (stereo not drawn),21 nM,250 nM,380 nM,6.6 nM,,
COc1ccc(-c2ccccc2)cc1C(C)(C)CC(O)(Cc1cc2ccncc2[nH]1)C(F)(F)F (stereo not drawn),12 nM,1200 nM,480 nM,40 nM,,69 nM
COc1ccc(F)cc1C(C)(C)CC(O)(Cc1cc2cccnc2[nH]1)C(F)(F)F (stereo not drawn),21 nM,> 2000 nM,910 nM,> 2000 nM,,
COc1ccc(F)cc1C(C)(C)CC(O)(Cc1cc2ccncc2o1)C(F)(F)F (stereo not drawn),22 nM,> 2000 nM,1050 nM,> 2000 nM,,
COc1ccc(F)cc1C(C)(C)CC(O)(Cc1cc2cc[n+]([O-])cc2[nH]1)C(F)(F)F (stereo not drawn),860 nM,> 2000 nM,> 2000 nM,,,
